# Measured values as given in US10786522B2, “Compositions that include anthocyanidins and methods of use” (Maqui NewLife S.A., priority 2009, dated 2020).
# Marks after values point to notes of the source that are not given here.
# Assays:
# Jurkat T cells [1] = assay: Calcium entry (SOCE) in Jurkat T cells after addition of CaCl2; assay type: cell-based
# Experimental: To measure calcium entry after 200 seconds, when the levels of calcium returned to the baseline, 0.9 mM of CaCl2 was added, and the fluxes of Ca^2+ were measured as ratio of excitation ratio at 340 and 380 nm, and emission at 509 nm in a spectrofluorimeter during 150 seconds.
# 4×10^6 FURA 2-AM-loaded Jurkat T cells were incubated in HBSS calcium free medium. The cells were incubated in 50 uM delphinidin or 50 uM delphinidin plus 10 μM BTP-2 and the fluxes of Ca^2+ were measured as ratio of excitation at 340 and 380 nm, and emission at 509 nm, at 37° C. in a spectrofluorimeter (LS55, PerkinElmer).
# Human T cells [2] = assay: IL-2 production in freshly isolated human T cells (ELISA); assay type: cell-based
# Experimental: (§1) The effect of delphinidin on IL-2 and INF-γ production was also assayed on freshly isolated human T cells. Human T cells were isolated from blood of healthy volunteers using Lymphoprep reagent. T cells (1×10^6) in RMPI medium were incubated for 48 hrs at 37° C., in 5% CO2 in the presence of a vehicle control solution; 50 μM delphinidin; 50 μM delphinidin+1 μM BTP-2; 50 μM delphinidin+5 μM BTP-2; 50 μM delphinidin+10 μM BTP-2; 1 μM BTP-2; 5 μM. BTP-2; or 10 μM BTP-2. Then the supernatants were collected and analyzed using commercial ELISA kit (Becton Dickinson, USA) to measure IL-2 and INF-γ production according to the supplier's directions.
# We evaluated the effect of a combination of delphinidin and andandrographolide on IL-2 production in both freshly harvested human T cells and the Jurkat cell line. Andrographolide was prepared according to the method described in Example 4. Human T cells were isolated from blood of healthy volunteers using Lymphoprep reagent. T cells (1×10^6) in RMPI medium were incubated for 48 hrs at 37° C., in 5% CO2 in the presence of a vehicle control solution; 5 nM andrographolide; 50 μM delphinidin; or 5 nM andrographolide plus 50 μM delphinidin. Then the supernatants were collected and analyzed using commercial ELISA kit (Becton Dickinson, USA) to measure IL-2 production according to the supplier's directions.
# Human T cells [3] = assay: INF-γ production in freshly isolated human T cells (ELISA); assay type: cell-based; conditions: 48 hrs
# Experimental: as §1
# Sprague Dawley rats = assay: Acute plantar inflammation model (carragenin) in rats; assay type: in vivo, rat; conditions: 1% carragenin, 6 hrs; anthocyanidins 35 mg/kg, diclofenac 2 mg/kg
# Experimental: We assayed the effect of anthocyanidins on inflammation in vivo in an acute plantar inflammation model. Inflammation was induced in Sprague Dawley rats (200 g) using 1% carragenin (Sigma-Aldrich). The animals were treated with 35 mg/kg of anthocyanidins rich in […] (prepared according to the method descirbed in Example 1) or with diclofenac (2 mg/kg). The diameter of the treated legs was measured with a digital caliper over 6 hrs.
# PPAR-γ = assay: PPAR-γ-Luc reporter assay in HL-60 cells; assay type: cell-based, Human; conditions: control substances, 12 h, concentration not given
# Experimental: We examined the effect of delphindin-rich anthocyanidins on PPAR-γ activation. HL-60 cells in IMDM medium were transfected with the reporter vectors PPAR-γ-Luc (5 μg) (Panomics) and TK-RL (1 μg) (Promega) using Fugene 6 reagent (Roche), and cultured for 24 hr. Then, the cells were incubated for 12 h in 0.175, 1.75, or 17.5 μg/ml of delphindin-rich anthocyanidins, phorbol myristate acetate (PMA), 15-deoxi-d 12,14-prostaglandin J2 (PGj2), or tumor necrosis factor alpha (TNFα) as controls. Luciferase activity was measured using the Dual-Luciferase Reporter Assay kit (DLR) from Promega in a luminometer (Luminoskan).
# Jurkat T cells [4] = assay: Calcium release in Jurkat T cells in HBSS calcium free medium; assay type: cell-based; conditions: 50 or 100 uM U73122 for 10 minutes prior to 50 uM delphinidin
# Experimental: To measure calcium release, 4×10^6 FURA 2-AM-loaded Jurkat T cells were incubated in HBSS calcium free medium as decribed in Example 6. The cells were incubated in 50 uM delphinidin, or in 50 uM delphinidin and 10 μM N-[4-[3,5-bis(trifluoromethyl)-1H-pyrazol-1-yl]phenyl]-4-methyl-1,2,3-thiadiazole-5-carboxamide (BTP-2, a Store-Operated Calcium Entry (SOCE) inhibitor). The release of Ca^2+ was measured as ratio of excitation at 340 and 380 nm, and emission at 509 nm, for 200 seconds, at 37° C., in a spectrofluorimeter (LS55, PerkinElmer).
# 4×10^6 FURA 2-AM-loaded Jurkat T cells were incubated in HBSS calcium free medium. The cells were then incubated in 50 uM delphinidin and the fluxes of Ca^2+ were measured as ratio of excitation at 340 and 380 nm, and emission at 509 nm, at 37° C. in a spectrofluorimeter (LS55, PerkinElmer).
# 4×10^6 FURA 2-AM-loaded Jurkat T cells were incubated in HBSS calcium free medium. The cells were then treated with vehicle alone or 50 or 100 uM U73122 for 10 minutes prior to incubation in 50 uM delphinidin. Ca^2+ flux was measured as ratio of excitation at 340 and 380 nm, and emission at 509 nm, at 37° C. in a spectrofluorimeter (LS55, PerkinElmer).
# Jurkat T cells [5] = assay: IL-2 production in Jurkat T cells (ELISA); assay type: cell-based
# Experimental: (§2) 2×10^6 Jurkat T cells in RPMI medium were incubated for 48 hrs at 37° C., in 5% CO2 in the presence of vehicle control solution; or the T cell activator, phorbol 12-myristate 13-acetate/lonomycin (PMA/Io 2 ng/ml 1 uM); 50 μM of delphinidin; 50 μM delphinidin+PMA/Io; 50 μM cyanidin; or 50 μM cyaniding+PMA/Io. Then the supernatants were collected and IL-2 production was analyzed by ELISA using a commercial kit (Becton Dickinson, USA) according to the supplier's directions.
# Then the supernatants were collected and analyzed using commercial ELISA kit (Becton Dickinson, USA) to measure IL-2 production according to the supplier's directions.
# Jurkat T cells were incubated in either a vehicle control solution; 5 nM andrographolide; 50 μM delphinidin; or 5 nM andrographolide plus 50 μM delphinidin.
# Jurkat T cells [6] = assay: INF-γ production in Jurkat T cells (ELISA); assay type: cell-based; conditions: 48 hrs
# Experimental: as §2, with “We also explored the effect of delphinidin and cyanidin on Interferon-gamma (INF-γ) production in Jurkat T cells. 2×10^6” for “2×10^6”, “CO2. The samples were incubated” for “CO2”, “13-acetate/Ionomycin” for “13-acetate/lonomycin”, “IFN-γ” for “IL-2”
# [7] = 1 μM BTP-2, alone or with 50 μM delphinidin
# [8] = 5 μM BTP-2, alone or with 50 μM delphinidin
# [9] = 10 μM BTP-2, alone or with 50 μM delphinidin
# [10] = Table 11, andrographolide 5 nM, delphinidin 50 μM
# [11] = Table 10, 48 hrs, andrographolide 5 nM, delphinidin 50 μM
# [12] = Table 5, 48 hrs, delphinidin 50 μM, cyanidin 50 μM, PMA/Io 2 ng/ml 1 uM
# [13] = delphinidin 50 μM, cyanidin 50 μM, PMA/Io 2 ng/ml 1 uM
compound,measurement,setting,value
"Cc1nnsc1C(=O)Nc1ccc(-n2nc(C(F)(F)F)cc2C(F)(F)F)cc1 [BTP-2, N-[4-[3,5-bis(trifluoromethyl)-1H-pyrazol-1-yl]phenyl]-4-methyl-1,2,3-thiadiazole-5-carboxamide]","delphinidin-induced calcium influx in the presence of inhibitor (FIG. 2A, 2B)",Jurkat T cells [1]; delphinidin 50 μM plus BTP-2 10 μM,reduced
same,"effect on calcium entry and release, result in words","Jurkat T cells [1]; delphinidin 50 μM, BTP-2 10 μM","inhibited the entry, but not the release"
same,Average IL-2 production,"Human T cells [2]; Table 7, 48 hrs, 1 μM BTP-2, alone or with 50 μM delphinidin",0 pg/mL
same,Average IL-2 production,"Human T cells [2]; Table 7, 48 hrs, 5 μM BTP-2, alone or with 50 μM delphinidin",0 pg/mL
same,Average IL-2 production,"Human T cells [2]; Table 7, 48 hrs, 10 μM BTP-2, alone or with 50 μM delphinidin",0 pg/mL
same,Average INF-γ production,Human T cells [3]; [7],240 pg/mL
same,Percentage vs. control (INF-γ),Human T cells [3]; [7],64.9%
same,Average INF-γ production,Human T cells [3]; [8],390 pg/mL
same,Percentage vs. control (INF-γ),Human T cells [3]; [8],105.4%
same,Average INF-γ production,Human T cells [3]; [9],140 pg/mL
same,Percentage vs. control (INF-γ),Human T cells [3]; [9],37.8%
"O=C(O)Cc1ccccc1Nc1c(Cl)cccc1Cl [Diclofenac, diclofenac]",Average ABC0-6 (area under the curve of the diameter of the treated legs),Sprague Dawley rats,12.5** mm*hr
same,Decrease percentage compared to control (ABC0-6),Sprague Dawley rats,37.5%
"CCCCC/C=C/C=C1/C(=O)C=C[C@@H]1C/C=C\CCCC(=O)O [PGj2, 15-deoxi-d 12,14-prostaglandin J2]",Average percentage activity of control [PPAR-γ-Luc/TK-RL] ± SD,PPAR-γ,256.8 ± 126.9%
"COc1ccc2c(c1)CC[C@@H]1[C@@H]2CC[C@]2(C)[C@@H](NCCCCCCN3C(=O)C=CC3=O)CC[C@@H]12 [U73122, reference compound]",delphinidin induced calcium flux after pretreatment (FIG. 3),Jurkat T cells [4],dose-dependent reduction
C=C1CC[C@@H]2[C@](C)(CO)[C@H](O)CC[C@@]2(C)[C@@H]1C/C=C1/C(=O)OC[C@H]1O [andrographolide],Average IL-2 production,Jurkat T cells [5]; [10],0.0140 Abs 450 nm
same,Percentage compared to the control (IL-2),Jurkat T cells [5]; [10],84.8%
same,Average IL-2 production,Human T cells [2]; [11],85 pg/mL
same,Percentage compared to the control (IL-2),Human T cells [2]; [11],212.5%
same,IL-2 levels higher (Table 10),"Human T cells [2]; andrographolide 5 nM, delphinidin 50 μM",112%
"Oc1cc(O)c2cc(O)c(-c3ccc(O)c(O)c3)[o+]c2c1 [cyanidin, Cyanidin]",IL-2 lower than control cells,"Jurkat T cells [5]; 50 μM, 48 hrs",10%
same,Average IL-2 production,Jurkat T cells [5]; [12],45 pg/mL
same,Percentage vs. control (IL-2),Jurkat T cells [5]; [12],90%
same,"INF-γ levels relative to control cells, result in words",Jurkat T cells [6]; 50 μM,about the same levels
same,Average INF-γ production,Jurkat T cells [6]; [13],8 pg/mL
same,Percentage vs. control (INF-γ),Jurkat T cells [6]; [13],100%
tumor necrosis factor alpha [TNFα],Average percentage activity of control [PPAR-γ-Luc/TK-RL] ± SD,PPAR-γ,283.4 ± 47.23%
